Measured values as given in patent publication US7722892B2, “Compounds” (Syngenta Crop Protection, Inc., priority 2001, dated 2010).

Key:
[1] = system: LOLRI Lolium rigidum (rye grass); experiment: Glasshouse weed kill, adjuvant with fluazifop-P-butyl, track sprayer; format: in vivo; settings: adjuvant 0.2% v/v, 21 days after treatment; for Mean Activity (% weed kill) LOLRI: with fluazifop-p-butyl, mean of 3 replicates and 4 rates; for ED90 LOLRI (concentration required to provide 90% weed kill): fluazifop-p-butyl rate, 200 l/ha
Protocol: (§1) An agrochemical composition was prepared containing 0.2% v/v of an adjuvant in a track sprayer containing fluazifop P butyl emulsified at one of four different concentrations. Weeds which had been grown to the 2.3 leaf stage were sprayed using volumes of 200 l/ha. Each sample was replicated three times. The following weed species were tested:— • AVEFA Avena fatua (wild oats) • LOLRI Lolium rigidum (rye grass) • TRZAW Triticum aestivum (wheat) • SETVI Setaria viridis (green foxtails)
(§2) Activity was measured 21 days after treatment and was compared with a standard composition containing only fluazifop-p-butyl. The concentration required to provide 90% weed kill was calculated and is given in TABLE 1 below together with the mean ED90 across the species.
(§3) Further adjuvants of the present invention were tested for activity in combination with fluzifop-p-butyl. Activity (% weed kill) was measured 21 days after treatment and is given as a mean of 3 replicates and 4 rates of fluazifop-p-butyl. All adjuvants were applied at 0.2% v/v. The results are given in Table 2 in comparison with a corresponding composition containing no adjuvant.

[2] = system: SETVI Setaria viridis (green foxtails); experiment: as above; format: in vivo; settings: adjuvant 0.2% v/v, 21 days after treatment; for Mean Activity (% weed kill) SETVI: with fluazifop-p-butyl, mean of 3 replicates and 4 rates; for ED90 SETVI (concentration required to provide 90% weed kill): fluazifop-p-butyl rate, 200 l/ha
Protocol: as §1, §2, §3

[3] = system: TRZAW Triticum aestivum (wheat); experiment: as above; format: in vivo; settings: adjuvant 0.2% v/v, 21 days after treatment; for Mean Activity (% weed kill) TRZAW: with fluazifop-p-butyl, mean of 3 replicates and 4 rates; for ED90 TRZAW (concentration required to provide 90% weed kill): fluazifop-p-butyl rate, 200 l/ha
Protocol: as §1, §2, §3

[4] = system: AVEFA Avena fatua (wild oats); experiment: as above; format: in vivo; settings: adjuvant 0.2% v/v, 21 days after treatment; for Mean Activity (% weed kill) AVEFA: with fluazifop-p-butyl, mean of 3 replicates and 4 rates; for ED90 AVEFA (concentration required to provide 90% weed kill): fluazifop-p-butyl rate, 200 l/ha
Protocol: as §1, §2, §3

[5] = system: AVEFA, LOLRI, TRZAW, SETVI; experiment: Weed kill with fluazifop-P-butyl, mean across the species; format: in vivo; settings: adjuvant 0.2% v/v, 21 days after treatment; for Mean Activity (% weed kill) Mean over all species: with fluazifop-p-butyl; for Mean ED90 across the species: fluazifop-p-butyl rate
Protocol: as §1, §2, §3

[6] = system: ALOMY, APESV, AVEFA, LOLMU, PHAPA; experiment: Adjuvant with thin leaved grass herbicide, mean of all weeds; format: in vivo
Protocol: (§4) The indicated adjuvants were evaluated in combination with a thin leaved grass herbicide 2,2,-dimethyl-propionic acid-8-(2,6-diethyl-4-methyl-phenyl)-9-oxo-1,2,4,5-tetrahydro-9H-pyrazolo[1,2-d][1,4,5]oxadiazepine-7-yl ester. The weeds were sprayed at the growth stages shown in the table with pesticide emulsions using a track sprayer and volumes of 200 l/ha. The adjuvants were added at 5% v/v as tank mix additives. Each result is the average of two replicates.

LOLMU = experiment: Adjuvant with thin leaved grass herbicide (oxadiazepine pivalate ester), track sprayer; format: in vivo; settings: 200 l/ha, average of two replicates
Protocol: as §4

[7] = system: APESV (Apera Spica-Venti); experiment: as above; format: in vivo; settings: 200 l/ha, average of two replicates
Protocol: as §4

[8] = system: PHAPA (Phalaris paradoxa); experiment: as above; format: in vivo; settings: 200 l/ha, average of two replicates
Protocol: as §4

ALOMY = experiment: as above; format: in vivo; settings: 200 l/ha, average of two replicates
Protocol: as §4

AVEFA = experiment: as above; format: in vivo, Avena fatua; settings: 200 l/ha, average of two replicates
Protocol: as §4

Puccinia recondita = experiment: Glasshouse disease control with azoxystrobin on inoculated barley; format: in vivo; settings: adjuvant 0.5% v/v tank mix, four replicates
Protocol: The results quoted are the mean percentage disease control from four replicates on barley inoculated with Puccinia recondita. The adjuvant was added as a 0.5% v/v tank mix.

Row | Substance | Mean Activity (% weed kill) LOLRI [1] [%] | Mean Activity (% weed kill) SETVI [2] [%] | Mean Activity (% weed kill) TRZAW [3] [%] | Mean Activity (% weed kill) AVEFA [4] [%] | Mean Activity (% weed kill) Mean over all species [5] [%] | ED90 LOLRI (concentration required to provide 90% weed kill) [1] [g/ha] | ED90 SETVI (concentration required to provide 90% weed kill) [2] [g/ha] | ED90 TRZAW (concentration required to provide 90% weed kill) [3] [g/ha] | ED90 AVEFA (concentration required to provide 90% weed kill) [4] [g/ha] | Mean ED90 across the species [5] [g/ha] | further results
1 | Isostearyl (2-hexyl-dodecan-1-ol) 10 Propylene Oxide [Isostearyl 10 PO] | 51.8 | 81.8 | 53.8 | 67.8 | 64 | – | – | – | – | – | –
2 | Isostearyl (2-hexyl-dodecan-1-ol) 20 Propylene Oxide [Isostearyl 20 PO] | 52.5 | 80.9 | 37.3 | 58 | 57 | – | – | – | – | – | –
3 | Oleic Acid 10 Ethylene Oxide End-Capped Methyl Ether [Oleic 10E Me Ether] | 56.2 | 78.4 | 56.1 | 71.3 | 66 | 34.8 | 15.8 | 28.4 | 16.7 | 23.9 | –
4 | Oleic Acid 20 Ethylene Oxide End-Capped Methyl Ether [Oleyl 20 EO Me ether] | 54.9 | 74.6 | 52.1 | 72.3 | 63 | – | – | – | – | – | –
5 | Oleyl 10 Ethylene Oxide End-Capped Butyl Ether [Oleyl 10 EO Bu ether] | 56.5 | 85.6 | 56 | 73.3 | 68 | – | – | – | – | – | Mean All Weeds ([6]; herbicide rate 5 gai/ha): 76; Mean All Weeds ([6]; herbicide rate 7.5 gai/ha): 93; Mean All Weeds ([6]; herbicide rate 10 gai/ha): 95; LOLMU activity (LOLMU; herbicide rate 5 gai/ha): 91; LOLMU activity (LOLMU; herbicide rate 7.5 gai/ha): 98; LOLMU activity (LOLMU; herbicide rate 10 gai/ha): 93; APESV activity ([7]; herbicide rate 5 gai/ha): 53; APESV activity ([7]; herbicide rate 7.5 gai/ha): 97; APESV activity ([7]; herbicide rate 10 gai/ha): 98; PHAPA activity ([8]; herbicide rate 5 gai/ha): 93; PHAPA activity ([8]; herbicide rate 7.5 gai/ha): 96; PHAPA activity ([8]; herbicide rate 10 gai/ha): 99; ALOMY activity (ALOMY; herbicide rate 5 gai/ha): 53; ALOMY activity (ALOMY; herbicide rate 7.5 gai/ha): 75; ALOMY activity (ALOMY; herbicide rate 10 gai/ha): 88; AVEFA activity (AVEFA; herbicide rate 5 gai/ha): 89; AVEFA activity (AVEFA; herbicide rate 7.5 gai/ha): 98; AVEFA activity (AVEFA; herbicide rate 10 gai/ha): 99
6 | Oleyl 10 Propylene Oxide End-Capped butyl ether [Oleyl 10P Bu Ether] | 54.4 | 84.2 | 45.8 | 71.4 | 64 | 34.9 | 16.7 | 29.2 | 19.8 | 25.2 | –
7 | Oleyl 10 Propylene Oxide [Oleyl 10PO] | 55.9 | 84.6 | 54.3 | 72.6 | 67 | – | – | – | – | – | Mean All Weeds ([6]; herbicide rate 5 gai/ha): 41; Mean All Weeds ([6]; herbicide rate 7.5 gai/ha): 83; Mean All Weeds ([6]; herbicide rate 10 gai/ha): 93; LOLMU activity (LOLMU; herbicide rate 5 gai/ha): 33; LOLMU activity (LOLMU; herbicide rate 7.5 gai/ha): 60; LOLMU activity (LOLMU; herbicide rate 10 gai/ha): 80; APESV activity ([7]; herbicide rate 5 gai/ha): 23; APESV activity ([7]; herbicide rate 7.5 gai/ha): 89; APESV activity ([7]; herbicide rate 10 gai/ha): 98; PHAPA activity ([8]; herbicide rate 5 gai/ha): 23; PHAPA activity ([8]; herbicide rate 7.5 gai/ha): 98; PHAPA activity ([8]; herbicide rate 10 gai/ha): 99; ALOMY activity (ALOMY; herbicide rate 5 gai/ha): 55; ALOMY activity (ALOMY; herbicide rate 7.5 gai/ha): 70; ALOMY activity (ALOMY; herbicide rate 10 gai/ha): 92; AVEFA activity (AVEFA; herbicide rate 5 gai/ha): 70; AVEFA activity (AVEFA; herbicide rate 7.5 gai/ha): 96; AVEFA activity (AVEFA; herbicide rate 10 gai/ha): 98
8 | Oleyl 20 Ethylene Oxide End-Capped Butyl Ether [Oleyl 20E Bu Ether] | 68.8 | 78.1 | 59.3 | 76.1 | 71 | 27.5 | 16.5 | 21.4 | 19.5 | 21.2 | mean percentage disease control (Puccinia recondita; Azoxystrobin 0 mgai/l): 5.9%; mean percentage disease control (Puccinia recondita; Azoxystrobin 0.625 mgai/l (Quadris 25 SC)): 66.5%; mean percentage disease control (Puccinia recondita; Azoxystrobin 1.25 mgai/l (Quadris 25 SC)): 82.7%; mean percentage disease control (Puccinia recondita; Azoxystrobin 2.5 mgai/l (Quadris 25 SC)): 90.5%
9 | Oleyl 20 Propylene Oxide End-Capped butyl ether [Oleyl 20P Bu Ether] | 46 | 75.9 | 38.8 | 67.4 | 57 | 48.6 | 19 | 32.2 | 23.4 | 30.8 | –
10 | Oleyl 20 Propylene Oxide [Oleyl 20 PO] | 36.3 | 80.4 | 53.3 | 70.6 | 60 | – | – | – | – | – | –
